Converted amounts (≈) assume the structure as drawn.
What was measured:
[1] = test system: Trichophyton mentagrophytes SM-110; experiment: Antifungal activity evaluation test: minimum inhibitory concentration (MIC), broth dilution by reference to CLSI M38-A2; assay type: cell-based; conditions: SM110, read-out: MIC (T. menta.)
Experimental: (§1) The minimum inhibitory concentration (MIC) for Trichophyton mentagrophytes and Trichophyton rubrum was measured by the following procedure by reference to Clinical and Laboratory standards Institute (CLSI) guidelines M38-A2. Reference document for the measurement method: National Committee for a Clinical Laboratory Standards. Reference method for broth dilution antifungal susceptibility testing of filamentous fungi. Approved standard Second edition M38-A2. Wayne, Pa.: National Committee for a Clinical Laboratory Standards, 2008. • Test compound solution: A test compound was dissolved in dimethyl sulfoxide (DMSO) at a concentration of 2.5 mg/mL to give a stock solution. The stock solution was appropriately diluted with DMSO to prepare a 2-fold dilution series. As control compounds, terbinafine and amorolfine were used. • Test strains: Trichophyton mentagrophytes SM-110 and Trichophyton rubrum KD-1130 were used. • Preparation of fungal culture to be inoculated: The above-mentioned test strain was suspended in 0.05% Tween 80-containing saline, and the fungi of the genus Trichophyton were prepared to a fungal concentration of 1×10^6 cells/mL by using a hemocytometer. Then, using MOPS-buffered RPMI 1640 medium (pH 7.0) as a test medium, a fungal culture of the fungi of the genus Trichophyton was diluted 250-fold (4×10^3 cells/mL) to give a fungal culture for inoculation. • MIC measurement of genus Trichophyton fungi: MOPS-buffered RPMI 1640 medium (pH 7.0) was dispensed by 100 μL to given wells of a 96 well U-bottom microplate. Then, the test compound solution (2 μL) was added, the mixture was sufficiently stirred by a plate mixer. The fungal culture (100 μL) was inoculated and the mixture was cultured at 35° C. for 4 days (final fungal concentration: 2×10^3 cells/mL). After the culture, the minimum drug concentration of a well in which a growth inhibitory action of not less than 80% was visually observed as compared to a growth control was taken as a minimum inhibitory concentration (MIC: μg/mL).
(§2) The abbreviations in the Tables mean the following fungi and compounds. • T. menta.: Trichophyton mentagrophytes • T. rubrum: Trichophyton rubrum • TBF: terbinafine • AMF: amorolfine

[2] = test system: Trichophyton rubrum KD-1130; experiment: as above; assay type: cell-based; conditions: KD1130, read-out: MIC (T. rubrum)
Experimental: as §1, §2

Structure (SMILES)	MIC [1]	MIC [2]
COc1ccncc1-c1cccnc1Oc1ccc(C(F)F)c(C)c1 [I-295, 2-[4-(difluoromethyl)-3-methylphenoxy]-4′-methoxy-3,3′-bipyridine]	≤ 0.1 µg/mL	≤ 0.1 µg/mL
COc1cc(-c2cncnc2Oc2ccc(C(C)(F)F)nc2)c(F)cc1F [I-334, 4-{[6-(1,1-difluoroethyl)pyridin-3-yl]oxy}-5-(2,4-difluoro-5-methoxyphenyl)pyrimidine]	≤ 0.1 µg/mL	≤ 0.1 µg/mL
Cc1ccncc1-c1cccnc1Oc1ccc(C(F)(F)CF)cc1 [I-306]	≤ 0.1 µg/mL	≤ 0.1 µg/mL
COc1ccccc1-c1nccnc1Oc1ccc(C(F)(F)F)nc1 [I-309, 2-(2-methoxyphenyl)-3-{[6-(trifluoromethyl)pyridin-3-yl]oxy}pyrazine]	0.2 to 0.78 µg/mL (≈ 0.576 to 2.25 µM)	≤ 0.1 µg/mL
CCOCCc1ccc(Oc2ncccc2-c2cccnc2OC)cc1 [I-396, 2-[4-(2-ethoxyethyl)phenoxy]2′-methoxy-3,3′-bipyridine]	≤ 0.1 µg/mL	≤ 0.1 µg/mL
FC(F)(F)c1ccc(Oc2ncccc2-c2cccc3cnccc23)cn1 [I-33, 5-(2-{[6-(trifluoromethyl)pyridin-3-yl]oxy}pyridin-3-yl)isoquinoline]	1.56 to 6.25 µg/mL (≈ 4.25 to 17 µM)	1.56 to 6.25 µg/mL (≈ 4.25 to 17 µM)
CCc1ccc(Oc2ncccc2-c2cccc3ccnn23)cc1 [I-292, 7-[2-(4-ethylphenoxy)pyridin-3-yl]pyrazolo[1,5-a]pyridine]	≤ 0.1 µg/mL	≤ 0.1 µg/mL
CCc1cc(Oc2ncccc2-c2cnccc2OC)ccc1C(F)F [I-296, 2-[4-(difluoromethyl)-3-ethylphenoxy]-4′-methoxy-3,3′-bipyridine]	≤ 0.1 µg/mL	≤ 0.1 µg/mL
c1cc(-c2cncnc2Oc2ccc3c(c2)CCC3)n2nccc2c1 [I-326, 7-{4-[(2,3-dihydro-1H-inden-5-yl)oxy]pyrimidin-5-yl}pyrazolo[1,5-a]pyridine]	≤ 0.1 µg/mL	≤ 0.1 µg/mL
CCc1ccc(Oc2ncccc2-c2cncc(Cl)c2OC)cc1 [I-284, 5′-chloro-2-(4-ethylphenoxy)-4′-methoxy-3,3′-bipyridine]	≤ 0.1 µg/mL	≤ 0.1 µg/mL
COc1ccncc1-c1cccnc1Oc1ccc(F)cc1 [I-236, 2-(4-fluorophenoxy)-4′-methoxy-3,3′-bipyridine]	1.56 to 6.25 µg/mL (≈ 5.26 to 21.1 µM)	1.56 to 6.25 µg/mL (≈ 5.26 to 21.1 µM)
COc1ncccc1-c1cccnc1Oc1ccc(OC(F)F)cc1 [I-446]	≤ 0.1 µg/mL	≤ 0.1 µg/mL
COc1ccccc1-c1cccnc1Oc1ccc(C(F)(F)CN(C)C(C)=O)nc1 [I-151, N-[2,2-difluoro-2-(5-{[3-(2-methoxyphenyl)pyridin-2-yl]oxy}-2-yl)-ethyl]-N-methylacetamide]	0.2 to 0.78 µg/mL (≈ 0.484 to 1.89 µM)	0.2 to 0.78 µg/mL (≈ 0.484 to 1.89 µM)
COc1ncccc1-c1cccnc1Oc1ccc2c(c1)CCCC2 [I-269, 2-methoxy-2′-[(5,6,7,8-tetrahydronaphthalen-2-yl)oxy]-3,3′-bipyridine]	≤ 0.1 µg/mL	≤ 0.1 µg/mL
COc1cc(F)ccc1-c1cccnc1Oc1ccc(C(F)(F)Cn2cccn2)nc1 [I-157, 2-{(6-[1,1-difluoro-2-(1H-pyrazol-1-yl)ethyl]pyridin-3-yl)oxy}-3-(4-fluoro-2-methoxyphenyl)pyridine]	≤ 0.1 µg/mL	≤ 0.1 µg/mL
FC(F)(F)c1ccc(Oc2ncccc2-c2cccc3ncnn23)cn1 [I-45, 5-(2-{[6-(trifluoromethyl)pyridin-3-yl]oxy}pyridin-3-yl)-[1,2,4]triazolo[1,5-a]pryidine]	1.56 to 6.25 µg/mL (≈ 4.37 to 17.5 µM)	0.2 to 0.78 µg/mL (≈ 0.56 to 2.18 µM)
Fc1ccc(F)c(-c2cccnc2Oc2ccc(C(F)(F)F)nc2)c1 [I-7, 3-(2,5-difluorophenyl)-2-{[6-(trifluoromethyl)pyridin-3-yl]oxy}pyridine]	≤ 0.1 µg/mL	≤ 0.1 µg/mL
COc1c(Cl)cncc1-c1cccnc1Oc1ccc(C(C)(F)F)nc1 [I-100, 5′-chloro-2-{[6-(1,1-difluoroethyl)pyridin-3-yl]oxy}-4′-methoxy-3,3′-bipyridine]	≤ 0.1 µg/mL	≤ 0.1 µg/mL
